Assays:
human ALK6 = human ALK6 (Homo sapiens (Human), UniProt O00238); assay: ALK6 enzyme inhibitory effect (33P-ATP kinase assay, Reaction Biology); type: biochemical; conditions: for inhibition at 0.3 µM: ALK6, test compound 300 nM, read-out: Inhibition rate at 300 nM; for inhibition at 0.37 µM: ALK6, test compound 370 nM (asterisk footnote), read-out: inhibition rate at 370 nM
Excerpt: (§1) ALK Enzyme Inhibitory Effect
(§2) Evaluation conditions were described in the following web pages. http://www.reactionbiology.corrilwebapps/site/Kinase_Assay_Protocol.aspx http://www.reactionbiology.corrilwebapps/site/KinaseDetail.aspx?page=Kinases&id=1

human ALK2 = human ALK2 (Homo sapiens (Human), UniProt Q04771); assay: ALK2 enzyme inhibitory effect (33P-ATP kinase assay, Reaction Biology); type: biochemical; conditions: ALK2, 10 μM ATP, 20 μM casein
Sequence of human ALK2 (Q04771 21-509): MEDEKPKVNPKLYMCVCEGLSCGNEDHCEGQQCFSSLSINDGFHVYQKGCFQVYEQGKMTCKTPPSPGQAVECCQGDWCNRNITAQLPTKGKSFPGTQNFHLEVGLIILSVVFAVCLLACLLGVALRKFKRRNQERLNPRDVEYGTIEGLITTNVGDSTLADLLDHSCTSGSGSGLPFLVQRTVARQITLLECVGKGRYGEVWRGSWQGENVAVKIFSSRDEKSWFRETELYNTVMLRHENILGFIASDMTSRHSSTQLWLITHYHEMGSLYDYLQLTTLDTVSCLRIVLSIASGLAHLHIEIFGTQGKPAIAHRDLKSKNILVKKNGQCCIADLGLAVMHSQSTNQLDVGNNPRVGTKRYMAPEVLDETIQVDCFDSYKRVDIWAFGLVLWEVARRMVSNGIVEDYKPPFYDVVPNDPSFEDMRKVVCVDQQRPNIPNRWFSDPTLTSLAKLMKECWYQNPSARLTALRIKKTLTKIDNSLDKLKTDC
Excerpt: as §1, §2

[1] = system: BMP signal in MDA-231-D-BREFluc/Rluc cells; assay: BMP signal inhibitory effect (AlphaScreen SureFire SMAD1 p-Ser463/465, BMP-6 stimulation); type: cell-based; conditions: BMP-6 stimulated MDA-231-D-BREFluc/Rluc cells, phospho-SMAD1 AlphaScreen; read-out: IC50
Procedure, shortened: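 MDA-231-D-BREFluc/Rluc cells were pretreated with compound for 2 h at 37° C, then stimulated with BMP-6 for 30 min. SMAD1 p-Ser463/465 in lysates was measured by AlphaScreen SureFire.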

human ALK3 = human ALK3 (Homo sapiens (Human), UniProt P36894); assay: ALK3 enzyme inhibitory effect (33P-ATP kinase assay, Reaction Biology); type: biochemical; conditions: for inhibition at 0.3 µM: ALK3, test compound 300 nM, read-out: Inhibition rate at 300 nM; for inhibition at 0.37 µM: ALK3, test compound 370 nM (asterisk footnote), read-out: inhibition rate at 370 nM
Sequence of human ALK3 (P36894 24-532): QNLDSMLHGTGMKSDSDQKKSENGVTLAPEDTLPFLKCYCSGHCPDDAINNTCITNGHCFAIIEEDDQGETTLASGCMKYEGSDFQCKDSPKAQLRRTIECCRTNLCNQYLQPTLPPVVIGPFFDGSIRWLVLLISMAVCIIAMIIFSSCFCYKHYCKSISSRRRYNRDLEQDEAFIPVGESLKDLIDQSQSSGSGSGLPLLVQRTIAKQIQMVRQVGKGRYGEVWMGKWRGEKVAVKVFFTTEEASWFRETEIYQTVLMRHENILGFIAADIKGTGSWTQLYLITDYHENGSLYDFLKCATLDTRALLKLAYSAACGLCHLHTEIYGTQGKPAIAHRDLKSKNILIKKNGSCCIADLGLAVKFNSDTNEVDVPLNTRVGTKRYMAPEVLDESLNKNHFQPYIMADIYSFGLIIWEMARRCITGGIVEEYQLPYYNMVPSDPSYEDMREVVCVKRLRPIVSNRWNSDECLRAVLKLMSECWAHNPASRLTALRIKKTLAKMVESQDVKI
Excerpt: as §1, §2

Sequence of human ALK6 (O00238 14-502): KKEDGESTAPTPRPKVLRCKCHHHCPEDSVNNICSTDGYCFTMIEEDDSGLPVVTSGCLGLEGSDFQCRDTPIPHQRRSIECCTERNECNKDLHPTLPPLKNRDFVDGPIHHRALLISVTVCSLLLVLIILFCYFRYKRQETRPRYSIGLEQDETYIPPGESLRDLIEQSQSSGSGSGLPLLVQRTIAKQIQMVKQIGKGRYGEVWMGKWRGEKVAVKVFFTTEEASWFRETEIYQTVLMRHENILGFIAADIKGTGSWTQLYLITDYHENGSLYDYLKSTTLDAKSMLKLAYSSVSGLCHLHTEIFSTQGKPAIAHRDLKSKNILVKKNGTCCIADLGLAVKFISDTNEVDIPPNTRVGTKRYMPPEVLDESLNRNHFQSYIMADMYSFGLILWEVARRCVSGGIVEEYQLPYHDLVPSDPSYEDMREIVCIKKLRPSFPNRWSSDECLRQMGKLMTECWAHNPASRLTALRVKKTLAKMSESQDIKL

SMILES | inhibition at 0.3 µM (human ALK6) | IC50 (human ALK2) | IC50 [1] | inhibition at 0.3 µM (human ALK3) | inhibition at 0.37 µM (human ALK6) | inhibition at 0.37 µM (human ALK3)
CCn1cc(-c2ccnc(Nc3ccc(C(=O)N4CCN(c5ccc(F)cc5)CC4)cc3)n2)c(-c2cccnc2)n1 [Example 3, (4-((4-(1-ethyl-3-(pyridin-3-yl)-1H-pyrazol-4-yl)pyrimidin-2-yl)amino)phenyl)(4-(4-fluorophenyl)piperazin-1-yl)methanone] | 79.6% | 24.2 nM | 26.7 nM | 52% | – | –
CCn1cc(-c2ccnc(Nc3ccc(N4CCNCC4)nc3)n2)c(-c2cccnc2)n1 [Example 155, 4-(1-Ethyl-3-(pyridin-3-yl)-1H-pyrazol-4-yl)-N-(6-(piperazin-1-yl)pyridin-3-yl)pyrimidin-2-amine] | – | 57 nM | 8.5 nM | – | 86.5% | 48.8%
COCCn1cc(-c2ccnc(Nc3ccc(N4CCNCC4)cc3)n2)c(-c2cccnc2)n1 [Example 71, 4-(1-(2-methoxyethyl)-3-(pyridin-3-yl)-1H-pyrazol-4-yl)-N-(4-(piperazin-1-yl)phenyl)pyrimidin-2-amine] | 76% | 40 nM | 22.8 nM | 48% | – | –
CCn1cc(-c2ccnc(Nc3ccc(N4CCN(CC(C)(C)O)CC4)cc3)n2)c(-c2cccnc2)n1 [Example 104, 1-(4-(4-((4-(1-ethyl-3-(pyridin-3-yl)-1H-pyrazol-4-yl)pyrimidin-2-yl)amino)phenyl)piperazin-1-yl)-2-methylpropan-2-ol] | 93.5% | 13.2 nM | 16.4 nM | 65.8% | – | –
CCn1cc(-c2ccnc(Nc3ccc4c(c3)CNCC4)n2)c(-c2cccnc2)n1 [Example 169, N-(4-(1-ethyl-3-(pyridin-3-yl)-1H-pyrazol-4-yl)pyrimidin-2-yl)-1,2,3,4-tetrahydroisoquinolin-7-amine] | 96.5% | 18 nM | 1.6 nM | 66.6% | – | –
c1cncc(-c2nn(C3COC3)cc2-c2ccnc(Nc3ccc(N4CCN(C5COC5)CC4)cc3)n2)c1 [Example 101, 4-(1-(oxetan-3-yl)-3-(pyridin-3-yl)-1H-pyrazol-4-yl)-N-(4-(4-(oxetan-3-yl)piperazin-1-yl)phenyl)pyrimidin-2-amine] | – | 18 nM | 70.8 nM | – | 70.4% | 48.8%
CCn1cc(-c2ccnc(Nc3ccc(N4CCN(C5COC5)CC4)cc3)n2)c(-c2cccnc2)n1 [Example 15, 4-(1-ethyl-3-(pyridin-3-yl)-1H-pyrazol-4-yl)-N-(4-(4-(oxetan-3-yl)piperazin-1-yl)phenyl)pyrimidin-2-amine] | 90.2% | 45 nM | 30.1 nM | 51.4% | – | –
CCn1cc(-c2ccnc(Nc3ccc(N4CCN(CCOC)CC4)cc3)n2)c(-c2cccnc2)n1 [Example 17, 4-(1-ethyl-3-(pyridin-3-yl)-1H-pyrazol-4-yl)-N-(4-(4-(2-methoxyethyl)piperazin-1-yl)phenyl)pyrimidin-2-amine] | 88% | 54 nM | 22.6 nM | 50.4% | – | –
c1ccc(CCn2cc(-c3ccnc(Nc4ccc(N5CCNCC5)cc4)n3)c(-c3cccnc3)n2)cc1 [Example 142, 4-(1-Phenethyl-3-(pyridin-3-yl)-1H-pyrazol-4-yl)-N-(4-(piperazin-1-yl)phenyl)pyrimidin-2-amine] | 92.6% | 87.2 nM | 7.3 nM | 62.7% | – | –
CCn1cc(-c2ccnc(Nc3ccc(N4CCN(Cc5ccccc5)CC4)cc3)n2)c(-c2cccnc2)n1 [Example 19, N-(4-(4-benzylpiperazin-1-yl)phenyl)-4-(1-ethyl-3-(pyridin-3-yl)-1H-pyrazol-4-yl)pyrimidin-2-amine] | 88.4% | 25 nM | 23.3 nM | 59.3% | – | –
CCn1cc(-c2ccnc(Nc3ccc4c(c3)CN(CCO)CC4)n2)c(-c2cccnc2)n1 [Example 179, 2-(7-((4-(1-ethyl-3-(pyridin-3-yl)-1H-pyrazol-4-yl)pyrimidin-2-yl)amino)-3,4-dihydroisoquinolin-2(1H)-yl)ethan-1-ol] | 94.3% | 31 nM | 5.7 nM | 62.4% | – | –
c1cncc(-c2nn(C3COC3)cc2-c2ccnc(Nc3ccc(N4CCNCC4)cc3)n2)c1 [Example 137, 4-(1-(Oxetan-3-yl)-3-(pyridin-3-yl)-1H-pyrazol-4-yl)-N-(4-(piperazin-1-yl)phenyl)pyrimidin-2-amine] | 85.3% | 46.2 nM | 35.6 nM | 47.9% | – | –
CCn1cc(-c2ccnc(Nc3ccc4c(c3)CCN(C(=O)CO)C4)n2)c(-c2cccnc2)n1 [Example 175, 1-(6-((4-(1-Ethyl-3-(pyridin-3-yl)-1H-pyrazol-4-yl)pyrimidin-2-yl)amino)-3,4-dihydroisoquinolin-2(1H)-yl)-2-hydroxyethan-1-one] | 93.6% | 46.8 nM | 10.8 nM | 74.6% | – | –
CC(C)(C)n1cc(-c2ccnc(Nc3ccc(N4CCNCC4)cc3)n2)c(-c2cccnc2)n1 [Example 135] | 77% | 54 nM | 11.7 nM | 60% | – | –
CCn1cc(-c2ccnc(Nc3ccc(N4CCC(C)(N)CC4)cc3)n2)c(-c2cccnc2)n1 [Example 176, N-(4-(4-amino-4-methylpiperidin-1-yl)phenyl)-4-(1-ethyl-3-(pyridin-3-yl)-1H-pyrazol-4-yl)pyrimidin-2-amine] | 88.5% | 66 nM | 7.3 nM | 62.4% | – | –
CCn1cc(-c2ccnc(Nc3ccc4c(c3)CCN(C(C)=O)C4)n2)c(-c2cccnc2)n1 [Example 75, 1-(6-((4-(1-Ethyl-3-(pyridin-3-yl)-1H-pyrazol-4-yl)pyrimidin-2-yl)amino)-3,4-dihydroisoquinolin-2(1H)-yl)ethan-1-one] | 92.9% | 28 nM | 14.8 nM | 67.5% | – | –
CCn1cc(-c2ccnc(Nc3ccc4c(c3)CCN(C)C4)n2)c(-c2cccnc2)n1 [Example 129, N-(4-(1-Ethyl-3-(pyridin-3-yl)-1H-pyrazol-4-yl)pyrimidin-2-yl)-2-methyl-1,2,3,4-tetrahydroisoquinolin-6-amine] | 92.2% | 33 nM | 1.8 nM | 55.7% | – | –
CCn1cc(-c2ccnc(Nc3ccc4c(c3)CCN(CCOC)C4)n2)c(-c2cccnc2)n1 [Example 126, N-(4-(1-Ethyl-3-(pyridin-3-yl)-1H-pyrazol-4-yl)pyrimidin-2-yl)-2-(2-methoxyethyl)-1,2,3,4-tetrahydroisoquinolin-6-amine] | 85% | 15 nM | 4 nM | 59% | – | –
CCn1cc(-c2ccnc(Nc3ccc(-c4cnn(C5CCNCC5)c4)cc3)n2)c(-c2cccnc2)n1 [Example 167, 4-(1-Ethyl-3-(pyridin-3-yl)-1H-pyrazol-4-yl)-N-(4-(1-(piperidin-4-yl)-1H-pyrazol-4-yl)phenyl)pyrimidin-2-amine] | 92.2% | 36.1 nM | 12.4 nM | 67.5% | – | –
CCn1cc(-c2ccnc(Nc3ccc4c(c3)CCNC4)n2)c(-c2cccnc2)n1 [Example 168, N-(4-(1-ethyl-3-(pyridin-3-yl)-1H-pyrazol-4-yl)pyrimidin-2-yl)-1,2,3,4-tetrahydroisoquinolin-6-amine] | 93.9% | 43 nM | 1.5 nM | 67.3% | – | –
CCn1cc(-c2ccnc(Nc3ccc(C4CCNCC4)cc3)n2)c(-c2cccnc2)n1 [Example 162, 4-(1-Ethyl-3-(pyridin-3-yl)-1H-pyrazol-4-yl)-N-(4-(piperidin-4-yl)phenyl)pyrimidin-2-amine] | 94.2% | 25 nM | 4.5 nM | 49.5% | – | –
CCn1cc(-c2ccnc(Nc3ccc4c(c3)CCNCC4)n2)c(-c2cccnc2)n1 [Example 171, N-(4-(1-Ethyl-3-(pyridin-3-yl)-1H-pyrazol-4-yl)pyrimidin-2-yl)-2,3,4,5-tetrahydro-1H-benzo [d] azepin-7-amine] | 98.3% | 17 nM | 1.3 nM | 67.1% | – | –

From US10954216B2, “BMP-signal-inhibiting compound” (RIKEN, priority 2016, dated 2021)
